Experiments:
[1] = biological target: human dopamine transporter (DAT) (Homo sapiens (Human), UniProt Q01959); assay: Scintillation Proximity Assay (SPA) competition binding, human DAT; conditions: recombinant hDAT-CHO membranes, [3H]WIN-35,428
Description: (§1) Measure of Affinity to the Human Transporters DAT, NET and SERT
In the context of the present invention pKi values (corresponding to the antilogarithm of Ki) are used instead of Ki; pKi are only estimated to be accurate to about 0.3 log unit.
(§2) Scintillation Proximity Assay (SPA) for Human DAT, NET and SERT Binding
(§3) Chinese Hamster Ovary (CHO) cells stably expressing either human DAT (hDAT-CHO) or human NET (hNET-CHO) or human SERT (hSERT-CHO) are used for the membrane preparations for radioligand binding assays using Scintillation proximity Assay (SPA) technique. Each cell line is cultured independently in F-12K Nutrient Mixture containing 10% of Fetal Bovine Serum (FBS) supplemented with 450 μg/ml G-418. When cells are at 70-80% of confluence 3 mM Na Butyrate was added to the cell culture medium. After 24 h of incubation, the culture medium was removed and the cells detached with Versene (DAT) or by scraping (NET and SERT). Cell suspension is centrifuged at 41,000 g for 10 minutes at 4° C. The resultant pellets are re-suspended in 15 volumes of Ice-cold buffer (20 mM HEPES, 145 mM NaCl, 5 mM KCl, pH7.3), homogenized using an Ultra Turrax homogeniser and centrifuged as before. The resultant membrane pellets are re-suspended in up to 15 volume of ice-cold buffer, incubated for 20 minutes at 37-C and centrifuged as before at 41,000 g. The final membrane pellets are re-suspended into 5-10 volumes of ice-cold buffer, dispensed into 0.5 ml aliquots and stored at −80° C. until use. Protein concentration for each preparation is determined using Bio-Rad Protein Assay kit.
(§4) The affinity of the compounds of the invention to the human DAT or NET or SERT transporters is assessed by using the [^3H]WIN-35,428 or [^3H]nisoxetine or [^3H]citalopram binding assays in recombinant human DAT, NET and SERT membranes with the SPA technology. The final assay volume is 50 μL in 384 well plates.
(§5) Briefly, 0.5 μL of test compound in neat DMSO or 0.5 μL of DMSO for total binding (TB) or 0.5 μL of indatraline 1 mM (10 μM final concentration) for non specific binding (NSB) are added to the assay plate. 50 μL of the SPA mixture is added to each well, containing: 30 μg/mL or 10 μg/mL or 25 μg/mL DAT, NET, SERT membranes, respectively; 5 nM [^3H]WIN-35,428 or 5 nM [^3H]nisoxetine or 1 nM [^3H]citalopram, for DAT, NET, SERT assay, respectively; 2.5 mg/mL or 1 mg/mL or 4 mg/mL WGA-PVT SPA beads (PerkinElmer RPNQ0001, for DAT, NET, SERT assay, respectively. All components are added to Assay Buffer (20 mM HEPES pH 7.4, 145 mM NaCl, 5 mM KCl, 0.01% Pluronic F-127). 0.02% BSA was used for DAT binding only. Plates are sealed with Topseal A and centrifuged 1 min, 800 rpm. Plates are loaded into a 1450 Microbeta TriLux (Perkin-Elmer) plate reader and the radioactivity counted after at least 4 hrs or overnight incubation at room temperature. Curve fitting and IC50 estimations are performed using a four parameter model in XLfit (IDBS, Guilford, UK) for Microdoft Excel (Microsoft, Redmond, Wash.).

[2] = biological target: human norepinephrine transporter (NET) (Homo sapiens (Human), UniProt P23975); assay: Scintillation Proximity Assay (SPA) competition binding, human NET; conditions: recombinant hNET-CHO membranes, [3H]nisoxetine
Description: as §1
(§6) Affinity is expressed in terms of inhibition constant (Ki) of the compounds of the invention for DAT, NET and SERT, and it is typically calculated from the IC50 values obtained in competition experiments using Cheng and Prusoff equation (Cheng and Prusoff, Biochem. Pharmacol. 22:3099, 1973). In the context of the present invention pKi values (corresponding to the antilogarithm of Ki) are used instead of Ki; pKi are only estimated to be accurate to about 0.3 log unit.
as §2, §3, §4, §5

[3] = biological target: human serotonin transporter (SERT) (Homo sapiens (Human), UniProt P31645); assay: Scintillation Proximity Assay (SPA) competition binding, human SERT; conditions: recombinant hSERT-CHO membranes, [3H]citalopram
Description: as §1, §6, §2, §3, §4, §5

[4] = biological target: human ERG potassium channel (hERG) (Homo sapiens (Human), UniProt Q12809); assay: hERG tail current recording, Rapid ICE automated patch-clamp; assay type: cell-based; conditions: HEK293 cells stably transfected with hERG
Description: Measure of the Effect on hERG Channel by Tail Current Recording Using In Vitro Rapid ICE™
The potency of the compounds of the invention in inhibiting human ERG potassium channel (hERG) tail current is assessed in a recombinant HEK293 cell line stably transfected with hERG cDNA using Rapid ICE™ (Rapid Ion Channel Electrophysiology) assay. Rapid ICE™ is an automated patch-clamp assay utilizing the PatchXpress 7000A system (Molecular Devices Corporation) or the QPatch HTX system (Sophion Bioscience A/S).
Briefly cells are cultivated for 24 to 72 hours before recordings in minimum essential medium supplemented with 10% FBS, 1% non-essential amino acids, 1% sodium pyruvate, 2 mM L-glutamine. The day of the experiment cells are detached with TrypLE and prepared to be loaded on the instrument. For PatchXpress cells are finally resuspended in 150 μl of Extracellular Buffer whereas for QPatch cells are resuspended in 7 ml Serum-Free Media containing 25 mM Hepes and Soybean trypsin inhibitor and immediately placed in the cell storage tank of the machine. The composition of the Extracellular Buffer is (mM): NaCl 137; KCl 4; CaCl2 1.8; MgCl2 1.0; D-glucose 10; N 2 hydroxyethylpiperazine-N′-2-ethanesulfonic acid (HEPES) 10; pH 7.4 with 1 M NaOH. The composition of the pipette solution is (mM): KCl 130; MgCl2 1.0; Ethylene glycol-bis(β-aminoethyl ether)-N,N,N′,N′-tetraacetic acid (EGTA) 5; MgATP 5; HEPES 10; pH 7.2 with 1 M KOH. The voltage protocol includes the following steps: step from −80 mV to −50 mV for 200 ms, +20 mV for 4.8 s, step to −50 mV for 5 s then step to the holding potential of −80 mV. Compounds of the invention are dissolved in DMSO and diluted in Extracellular Buffer to achieve final test concentrations (0.1, 1 and 10 μM) in 0.1% DMSO. The voltage protocol is run and recorded continuously during the experiment. The vehicle, corresponding to 0.1% DMSO in Extracellular Buffer, is then applied for 3 min followed by the test substance in triplicate. The standard combined exposure time is 5 min. The average of tail current amplitude values recorded from 4 sequential voltage pulses is used to calculate for each cell the effect of the test substance by calculating the residual current (% control) compared with vehicle pre-treatment. Data are reported as % inhibition for each concentration tested and IC50 values are estimated using DataXpress or QPatch software. At least two cells are tested, more if results diverge.

Chain of human ERG potassium channel (hERG) (Q12809 whole entry): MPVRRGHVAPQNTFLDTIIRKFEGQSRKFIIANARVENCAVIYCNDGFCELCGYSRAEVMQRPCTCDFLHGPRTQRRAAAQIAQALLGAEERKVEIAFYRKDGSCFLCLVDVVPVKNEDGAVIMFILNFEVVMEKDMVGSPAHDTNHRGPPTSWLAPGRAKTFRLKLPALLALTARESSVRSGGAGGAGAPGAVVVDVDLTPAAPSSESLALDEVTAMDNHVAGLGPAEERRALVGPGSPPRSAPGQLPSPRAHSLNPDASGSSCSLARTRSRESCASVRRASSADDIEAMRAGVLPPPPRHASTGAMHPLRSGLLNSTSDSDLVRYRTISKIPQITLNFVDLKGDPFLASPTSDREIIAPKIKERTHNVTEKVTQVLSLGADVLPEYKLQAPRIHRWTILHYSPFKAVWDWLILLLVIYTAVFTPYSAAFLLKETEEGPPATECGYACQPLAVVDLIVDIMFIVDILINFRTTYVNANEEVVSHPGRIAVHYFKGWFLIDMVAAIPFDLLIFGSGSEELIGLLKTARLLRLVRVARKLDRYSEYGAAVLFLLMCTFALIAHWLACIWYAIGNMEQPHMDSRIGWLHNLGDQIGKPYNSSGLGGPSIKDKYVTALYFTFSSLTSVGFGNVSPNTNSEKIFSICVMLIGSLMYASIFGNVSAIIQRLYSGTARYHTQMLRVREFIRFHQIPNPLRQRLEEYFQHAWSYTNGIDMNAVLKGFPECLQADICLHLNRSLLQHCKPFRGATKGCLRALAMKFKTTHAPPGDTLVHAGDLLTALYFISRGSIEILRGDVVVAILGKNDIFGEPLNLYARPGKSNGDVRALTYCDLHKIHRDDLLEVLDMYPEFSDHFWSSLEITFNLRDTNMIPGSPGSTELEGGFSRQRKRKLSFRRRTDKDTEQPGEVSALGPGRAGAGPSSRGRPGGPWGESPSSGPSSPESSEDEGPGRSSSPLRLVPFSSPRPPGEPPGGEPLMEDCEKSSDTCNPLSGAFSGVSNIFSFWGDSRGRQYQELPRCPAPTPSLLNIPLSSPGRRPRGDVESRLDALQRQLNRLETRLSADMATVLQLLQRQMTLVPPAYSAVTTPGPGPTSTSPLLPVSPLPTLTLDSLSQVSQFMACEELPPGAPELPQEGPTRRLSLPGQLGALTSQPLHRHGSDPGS
Chain of human dopamine transporter (DAT) (Q01959 whole entry): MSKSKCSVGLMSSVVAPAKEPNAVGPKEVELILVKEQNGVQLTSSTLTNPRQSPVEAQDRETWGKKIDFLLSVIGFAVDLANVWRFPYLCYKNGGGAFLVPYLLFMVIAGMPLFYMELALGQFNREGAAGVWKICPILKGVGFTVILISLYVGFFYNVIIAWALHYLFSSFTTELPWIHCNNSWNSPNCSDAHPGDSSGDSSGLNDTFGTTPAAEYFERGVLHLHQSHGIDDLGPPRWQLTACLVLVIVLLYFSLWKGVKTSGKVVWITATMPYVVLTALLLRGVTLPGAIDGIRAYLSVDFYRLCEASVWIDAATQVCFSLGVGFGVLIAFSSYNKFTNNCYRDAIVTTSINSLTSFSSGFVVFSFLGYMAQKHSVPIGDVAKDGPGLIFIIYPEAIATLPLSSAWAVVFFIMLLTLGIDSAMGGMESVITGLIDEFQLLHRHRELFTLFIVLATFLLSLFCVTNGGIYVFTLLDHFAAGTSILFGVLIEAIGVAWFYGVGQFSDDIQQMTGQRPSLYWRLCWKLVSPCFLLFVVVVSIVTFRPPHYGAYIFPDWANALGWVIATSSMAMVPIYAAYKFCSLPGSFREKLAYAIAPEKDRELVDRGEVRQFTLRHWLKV
Chain of human norepinephrine transporter (NET) (P23975 whole entry): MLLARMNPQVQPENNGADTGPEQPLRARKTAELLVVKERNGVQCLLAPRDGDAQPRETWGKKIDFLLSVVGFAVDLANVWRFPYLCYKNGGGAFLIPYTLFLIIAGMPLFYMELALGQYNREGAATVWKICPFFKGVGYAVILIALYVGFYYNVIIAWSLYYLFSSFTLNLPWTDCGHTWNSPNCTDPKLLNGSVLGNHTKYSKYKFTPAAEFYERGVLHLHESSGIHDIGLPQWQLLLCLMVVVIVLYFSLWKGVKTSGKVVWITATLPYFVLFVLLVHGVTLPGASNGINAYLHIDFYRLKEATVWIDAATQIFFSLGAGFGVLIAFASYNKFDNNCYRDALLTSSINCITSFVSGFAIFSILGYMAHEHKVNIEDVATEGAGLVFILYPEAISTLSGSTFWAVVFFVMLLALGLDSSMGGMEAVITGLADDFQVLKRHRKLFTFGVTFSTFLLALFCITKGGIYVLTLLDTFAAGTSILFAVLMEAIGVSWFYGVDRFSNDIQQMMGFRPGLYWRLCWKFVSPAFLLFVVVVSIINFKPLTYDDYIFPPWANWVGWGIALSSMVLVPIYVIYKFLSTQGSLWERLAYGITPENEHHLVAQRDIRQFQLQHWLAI
Chain of human serotonin transporter (SERT) (P31645 whole entry): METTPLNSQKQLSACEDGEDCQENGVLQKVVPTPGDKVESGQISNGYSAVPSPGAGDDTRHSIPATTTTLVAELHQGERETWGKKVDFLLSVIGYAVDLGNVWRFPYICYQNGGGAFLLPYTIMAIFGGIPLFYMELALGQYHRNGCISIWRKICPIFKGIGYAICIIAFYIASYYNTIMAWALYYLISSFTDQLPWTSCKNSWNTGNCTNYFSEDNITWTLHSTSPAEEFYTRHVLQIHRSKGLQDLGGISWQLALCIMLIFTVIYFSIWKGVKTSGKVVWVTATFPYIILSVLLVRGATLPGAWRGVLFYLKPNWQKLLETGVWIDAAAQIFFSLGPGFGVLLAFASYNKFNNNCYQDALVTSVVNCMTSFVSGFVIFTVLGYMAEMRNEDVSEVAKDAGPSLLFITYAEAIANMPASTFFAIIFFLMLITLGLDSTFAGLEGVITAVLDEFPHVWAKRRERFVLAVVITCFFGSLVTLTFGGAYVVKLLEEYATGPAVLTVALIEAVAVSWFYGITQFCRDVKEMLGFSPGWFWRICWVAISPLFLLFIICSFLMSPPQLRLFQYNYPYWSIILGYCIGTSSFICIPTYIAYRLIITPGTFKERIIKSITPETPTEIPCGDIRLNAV

Compound	pIC50 DAT [1]	pIC50 NET [2]	pIC50 SERT [3]	pIC50 hERG [4]
Fc1cccc(Oc2cc(F)c(F)cc2N2CCC3(CC2)CNCCO3)c1 [Example 1, 9-[4,5-difluoro-2-(3-fluorophenoxy)phenyl]-1-oxa-4,9-diazaspiro[5.5]undecane]	7.96	5.69	6.44	6.0
Fc1cccc(Oc2ccccc2N2CCC3(CC2)CNCCO3)c1 [Example 4, 9-[2-(3-fluorophenoxy)phenyl]-1-oxa-4,9-diazaspiro[5.5]undecane]	7.31	6.13	6.24	5.8
N#Cc1ccc(Oc2ccccc2)c(N2CCC3(CC2)CNCCO3)c1 [Example 5, 3-{1-oxa-4,9-diazaspiro[5.5]undecan-9-yl}-4-phenoxybenzonitrile]	6.82	6.19	7.63	6.2
Fc1cccc(Oc2cccc(N3CCC4(CC3)CNCCO4)c2)c1 [Example 7, 9-[3-(3-fluorophenoxy)phenyl]-1-oxa-4,9-diazaspiro[5.5]undecane]	7.54	6.33	5.99	5.8
Fc1cccc(Oc2cc(F)cc(N3CCC4(CC3)CNCCO4)c2)c1 [Example 8, 9-[3-fluoro-5-(3-fluorophenoxy)phenyl]-1-oxa-4,9-diazaspiro[5.5]undecane]	8.25	6.90	7.10	6.3
Fc1cccc(Oc2ccc(F)c(N3CCC4(CC3)CNCCO4)c2)c1 [Example 10, 9-[2-fluoro-5-(3-fluorophenoxy)phenyl]-1-oxa-4,9-diazaspiro[5.5]undecane]	7.56	6.07	5.32	5.6
Fc1cccc(Oc2cc(N3CCC4(CC3)CNCCO4)ccc2F)c1 [Example 11, 9-[4-fluoro-3-(3-fluorophenoxy)phenyl]-1-oxa-4,9-diazaspiro[5.5]undecane]	6.78	5.72	6.22	6.5
Fc1cccc(Oc2cc(F)c(F)c(N3CCC4(CC3)CNCCO4)c2)c1 [Example 13, 9-[2,3-difluoro-5-(3-fluorophenoxy)phenyl]-1-oxa-4,9-diazaspiro[5.5]undecane]	8.38	6.74	6.33	5.6
Fc1c(Oc2ccccc2)cccc1N1CCC2(CC1)CNCCO2 [Example 17, 9-(2-fluoro-3-phenoxyphenyl)-1-oxa-4,9-diazaspiro[5.5]undecane]	8.42	6.46	5.65	5.4
Fc1cccc(Oc2cccc(N3CCC4(CC3)CNCCO4)c2F)c1 [Example 19, 9-[2-fluoro-3-(3-fluorophenoxy)phenyl]-1-oxa-4,9-diazaspiro[5.5]undecane]	8.64	7.01	5.99	5.4
Fc1cccc(Oc2cc(F)cc(N3CCC4(CC3)CNCCO4)c2F)c1 [Example 21, 9-[2,5-difluoro-3-(3-fluorophenoxy)phenyl]-1-oxa-4,9-diazaspiro[5.5]undecane]	9.11	7.49	6.48	5.4
N#Cc1cc(Oc2ccccc2)cc(N2CCC3(CC2)CNCCO3)c1 [Example 25, 3-{1-oxa-4,9-diazaspiro[5.5]undecan-9-yl}-5-phenoxybenzonitrile]	8.66	7.19	7.43	6.1
Cl.Fc1cccc(Oc2cc(C(F)(F)F)cc(N3CCC4(CC3)CNCCO4)n2)c1 [Example 37, 9-[6-(3-fluorophenoxy)-4-(trifluoromethyl)pyridin-2-yl]-1-oxa-4,9-diazaspiro[5.5]undecane hydrochloride]	8.86	7.07	5.33	5.9
Cl.Fc1cccc(Oc2cncc(N3CCC4(CC3)CNCCO4)n2)c1 [Example 41, 9-[6-(3-fluorophenoxy)pyrazin-2-yl]-1-oxa-4,9-diazaspiro[5.5]undecane hydrochloride]	7.44	5.33	6.02	5.9
Cl.O=C1CCNCC12CCN(c1nc(Oc3cccc(F)c3)cc(C(F)(F)F)n1)C2 (centres unmarked) [Example 88, 2-[4-(3-fluorophenoxy)-6-(trifluoromethyl)pyrimidin-2-yl]-2,7-diazaspiro[4.5]decan-10-one hydrochloride]	8.15	6.55	4.48	–
Cl.Fc1cccc(Oc2cc(F)c(F)cc2N2CCC3(CCNCC34OCCO4)C2)c1 (centres unmarked) [Example 94, 8-[4,5-difluoro-2-(3-fluorophenoxy)phenyl]-1,4-dioxa-8,13-diazadispiro[4.0.4^6.4^5]tetradecane hydrochloride]	8.69	7.11	7.14	–
Fc1cccc(Oc2cc(C(F)(F)F)nc(N3CC4(CNCCO4)C3)n2)c1 [Example 102, 2-[4-(3-fluorophenoxy)-6-(trifluoromethyl)pyrimidin-2-yl]-5-oxa-2,8-diazaspiro[3.5]nonane]	8.00	6.22	4.00	–

From patent US9908897B2, “Spirocyclic derivatives” (CHRONOS THERAPEUTICS LIMITED, priority 2014, dated 2018)
